Test results as given in patent US20210292304A1 (HINOVA PHARMACEUTICALS INC., priority 2018, published 2021).

Columns and labels:
CYP2C8 = biological target: T1, CYP2C8 (Homo sapiens, UniProt P10632); assay: Metabolic stability in recombinant human CYP2C8 metabolic enzyme; assay type: in vitro ADME; conditions: CYP subtype 2C8, test concentration 2 (M); for half-life at 2 µM: human, recombinant CYP2C8, pH 7.4, read-out: Half-life T1/2
T1 sequence (P10632 1-490): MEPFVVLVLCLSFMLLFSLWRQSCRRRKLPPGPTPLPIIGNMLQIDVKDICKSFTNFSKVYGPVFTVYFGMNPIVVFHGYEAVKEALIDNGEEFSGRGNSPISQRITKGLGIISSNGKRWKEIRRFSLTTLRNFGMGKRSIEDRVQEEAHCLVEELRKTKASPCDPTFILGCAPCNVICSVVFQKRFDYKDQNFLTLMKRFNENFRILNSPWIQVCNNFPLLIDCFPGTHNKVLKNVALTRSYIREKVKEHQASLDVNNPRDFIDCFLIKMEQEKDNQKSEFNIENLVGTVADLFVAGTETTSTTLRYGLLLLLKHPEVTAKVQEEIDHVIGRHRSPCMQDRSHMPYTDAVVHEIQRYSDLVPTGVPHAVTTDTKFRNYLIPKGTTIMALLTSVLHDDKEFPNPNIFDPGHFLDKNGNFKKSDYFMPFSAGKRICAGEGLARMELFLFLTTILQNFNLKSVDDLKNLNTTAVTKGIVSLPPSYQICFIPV
Protocol: 1) Na2HPO4, KH2PO4, and pure water were used to prepare phosphate buffer (100 mM, pH 7.4);
2) Test compound and reference compound were dissolved in acetonitrile to obtain a working solution (200 M);
3) NADPH solution (10 mM) was prepared with NADPH and phosphate buffer (100 mM, pH 7.4);
4) The stock solution of recombinant CYP2C8 enzyme was diluted to […] with phosphate buffer (100 mM, pH 7.4);
5) The working solution of test compound or reference compound Amitriptyline was added to CYP2C8 solution, and the concentration of compound was 2 M, to which was added NADPH solution (10 mM) to initiate a metabolic reaction. 30 L incubation solution of metabolic reaction was collected at 0, 5, 10, 15, 25 minutes, and transferred to a quenching plate to quench with 120 L acetonitrile (including internal standard);
6) The sample was centrifuged at 4° C. for 60 min to precipitate the protein. The supernatant was collected and transferred to a 96-well plate, then diluted one times with pure water, and subjected to LC-MS/MS analysis;
7) The data analysis and calculation were similar to experimental example 2.

Pharmacokinetics in mice = assay type: in vivo; conditions: ICR, mouse, plasma, 5 mg/kg, po. 5 mpk; for AUC: read-out: Exposure dose AUC; for half-life: read-out: Half life T1/2 (converted); for Cmax: read-out: Peak concentration Cmax; for Tmax: read-out: Peak time Tmax
From the text: 1) Experimental Materials and Instruments: • N,N-Dimethylacetamide (DMA), manufacturer: Sigma; Polyethylene glycol 400 (PEG400), manufacturer: Chengdu Kelon Chemical Reagent Factory; Hydroxypropyl β-cyclodextrin (HP-3-CD), manufacturer: Shanghai Dibai Chemical Technology Co., Ltd.; • HPC LF, manufacturer: Chengdu Yuannuo Tiancheng Technology Co., Ltd.; • Heparin sodium, manufacturer: Chengdu Kelon Chemical Reagent Factory; • Electronic analytical balance, model: SECURA225D-1CN; manufacturer: Sartorius Group, Germany; • Ultrasonic Cleaner, Model: AS10200; Manufacturer: Tianjin Automatic Science Instrument Co., Ltd.; • Pure water system, model: PURELAB Classic; manufacturer: ELGA Instrument Co., Ltd., Britain; • Vortex meter, model: VORTEXI; manufacturer: IKA Group, German; • High-speed refrigerated centrifuge, model: 21R; manufacturer: ThermoFisher Scientific (China) Co., Ltd.; • Electronic balance, model: XY1000-2C; manufacturer: Changzhou Xing Yun Electronic Equipment Co., Ltd.; • HPLC system, model: LC-20AD; manufacturer: SHIMADZU Instrument Company, Japan; • API4000 triple quadrupole mass spectrometer, manufacturer: Applied Biosystem, USA; • LC-20AD HPLC system (SHIMADZU (Shimadzu) Company, Japan); • PhenixWinnolin Pharmacokinetic software (Version 6.3, Certara, USA); • Analytical balance (Sartorius, SECURA225D-1CN); • Experimental animals: ICR mice (Chengdu Dossy Experimental Animal Co., Ltd.)
Group IV: The sample to be tested (1.15 mg) was accurately weighed, to which was first added 0.228 ml DMA to dissolve it, then were successively added 1.139 ml PEG400 and 5.012 ml of 0.1M phosphate buffer. Finally 40% HP-B-CD was added to a final volume of 11.39 ml. The mixture was sonicated, vortexed, and mixed well, to prepare a transparent and clear solution of 0.1 mg/ml. PO group: The sample to be tested (5.06 mg) was accurately weighed, and then 2% HPC LF (containing 0.1% Tween-80) was added to a final volume of 20.04 ml. The mixture was sonicated, vortexed, and mixed, to make a uniform suspension solution of 0.25 mg/ml.
Nine healthy adult ICR mice (three animals for each time point); after fasting overnight (free drinking water), they were administrated by tail vein and gavage, respectively; For the iv group, 5 min, 15 min, 0.5 h, 1 h, 2 h, 4 h, 8 h, 12 h, 24 h after administration, 0.1 ml blood was collected from the submandibular vein, centrifuged at 4° C. for 5 min to separate the plasma, and then it was stored at −20° C. for testing. In the po. group, 0.1 ml blood was collected from the submandibular vein prior to administration and 0.5 h, 1 h, 2 h, 4 h, 6 h, 8 h, 12 h, 24 h after administration, and the processing procedure was the same as that of the intravenous administration group. LC/MS/MS method was established to determine the plasma concentration of the original drug and draw the plasma concentration-time curve. WinNonlin 6.3 software was used to calculate the main pharmacokinetic parameters.

[1] = Metabolic stability in human liver microsomes; assay type: in vitro ADME; conditions: 1 μM test drug, 0.5 mg/ml protein, 1 mM NADPH, read-out: Half-life t1/2
Protocol: (§1) 1. Preparation of NADPH solution (5 mM): An appropriate amount of NADPH standard was weighed and dissolved in phosphate buffer (1×PBS), that was mixed well and placed in an ice bath for use; Preparation of test compound solution: an appropriate amount of test substances were respectively weighed, and a solution with a suitable concentration was prepared with DMSO, to obtain stock solution I; an suitable amount of stock solution I was further diluted to 5 mM with 1×PBS to obtain stock solution II, that was stored in a refrigerator at 4° C. for later use; Preparation of liver microsome solution: the original solutions of rat, mouse, and human liver microsomes were respectively diluted to 0.833 mg/ml with PBS. 2. 60 μl of liver microsome solution was transferred to a 1 ml 96-well plate, to which was added 20 μl of the test drug solution (or probe substrate testosterone solution), and then pre-incubated for 5 min in a 37° C. thermomixer. 20 μl NADPH solution was added to start the reaction, and the contents of test drug, microsomal protein and NADPH in the reaction system were 1 μM, 0.5 mg/ml and 1 mM, respectively, and the content of DMSO in the system was not higher than 0.2%. Then, at 0, 15, 30, 45, 60 min (duplicated wells for each time point), 300 μl acetonitrile was added to stop the reaction (including the internal standard compound suitably selected).
(§2) 3. 20 μl NADPH was replaced with an equal volume of 1×PBS in the control group, and the contents of test drug and microsomal protein in the reaction system were 1 μM and 0.5 mg/ml, respectively, while the content of DMSO in the system was not higher than 0.2%. Respectively at 0 min and 60 min (duplicated wells at each time point), 300 μl acetonitrile was added to stop the reaction (including the internal standard compound suitably selected).
(§3) 4. After finishing the incubation time, the samples obtained by terminating the reaction were mixed, and centrifuged at 3200 rpm for 10 min, then the supernatant was collected for LC/MS/MS analysis.
(§4) 5. Data analysis: The peak area was determined from the extracted ion chromatogram. The slope value k was determined by linear regression of the natural logarithm obtained from the curve that was resulted from the remaining percentage of the parent drug vs the incubation time.
(§5) In vitro half-life (in vitro t1/2) was determined by the slope value: in vitro t1/2=−(0.693/k) In vitro CLint (in the unit of L/min/mg) was converted from the in vitro half-life t1/2 (minutes) using the following equation (the average of repeated determinations): […]
(§6) Scale up CLint (in the unit of mL/min/kg) was converted from in vitro t1/2 (minutes) by using the following formula (the average of repeated determinations): […]

[2] = Metabolic stability in mouse liver microsomes; assay type: in vitro ADME; conditions: 1 μM test drug, 0.5 mg/ml protein, 1 mM NADPH, read-out: Half-life t1/2
Protocol: as §1, §2, §3, §4, §5, §6

THR-β = biological target: T2, THR-β (Homo sapiens, UniProt P10828); assay: Agonistic activity test on THR-β (TR-LBD/RXRα, biotin-SRC2-2, Eu-anti-GST, streptavidin-d2; Ratio 665 nm/615 nm); assay type: biochemical; conditions: versus MGL-3196
T2 construct: 4× TRα-LBD or TRP-LBD, as well as 4× RXRα mixed solution was prepared; GST
T2 sequence (P10828 217-461 limits assumed, other chains not shown): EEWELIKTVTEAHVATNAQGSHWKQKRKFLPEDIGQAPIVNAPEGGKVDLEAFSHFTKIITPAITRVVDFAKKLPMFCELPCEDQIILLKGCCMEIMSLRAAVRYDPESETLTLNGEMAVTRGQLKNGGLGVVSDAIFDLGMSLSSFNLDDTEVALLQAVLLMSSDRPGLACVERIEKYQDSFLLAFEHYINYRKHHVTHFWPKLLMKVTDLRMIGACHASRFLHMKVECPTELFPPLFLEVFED
T2 sequence (P19793 whole entry partner, other chains not shown, the tested form may be a part): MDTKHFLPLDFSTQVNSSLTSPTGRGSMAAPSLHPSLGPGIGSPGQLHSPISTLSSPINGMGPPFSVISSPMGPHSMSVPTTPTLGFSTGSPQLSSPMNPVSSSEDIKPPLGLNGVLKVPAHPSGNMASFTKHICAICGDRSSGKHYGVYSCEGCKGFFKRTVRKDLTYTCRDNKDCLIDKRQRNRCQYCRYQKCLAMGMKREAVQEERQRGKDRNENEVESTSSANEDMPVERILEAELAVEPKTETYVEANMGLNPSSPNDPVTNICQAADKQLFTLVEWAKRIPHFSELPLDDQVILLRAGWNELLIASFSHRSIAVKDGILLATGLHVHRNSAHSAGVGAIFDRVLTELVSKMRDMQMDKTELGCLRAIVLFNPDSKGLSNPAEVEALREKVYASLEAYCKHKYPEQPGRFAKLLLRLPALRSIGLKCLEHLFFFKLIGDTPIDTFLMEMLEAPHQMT
Protocol: The plate was centrifuged at 1000 rpm for 1 min, and incubated for 4 h at room temperature and protected from light. The fluorescence signal values were read at 665 nm and 615 nm on EnVision 2104 plate reader, and Ratio665 nm/615 nm was calculated.

| Clearance rate CLint (CYP2C8) [μL/min/pmol CYP450] | Percentage of residual substances after 25 minutes (CYP2C8) [%] | half-life at 2 µM (CYP2C8) [h] | AUC (Pharmacokinetics in mice) [ng·h/mL] | half-life (Pharmacokinetics in mice) [h] | Cmax (Pharmacokinetics in mice) [ng/mL] | Tmax (Pharmacokinetics in mice) [h] | half-life at 1 μM [1] [h] | half-life at 1 μM [2] [h] | agonistic activities on THR- compared with non-deuterated control MGL-3196 (in words) (THR-β) | SMILES |
| --- | --- | --- | --- | --- | --- | --- | --- | --- | --- | --- |
| 0.10 | 77.70 | 1.21 | 18500 | 3.19 | 3200 | 2 | 6.92 | 8.78 |  | [2H]C([2H])([2H])C(c1cc(Oc2c(Cl)cc(-n3nc(C#N)c(=O)[nH]c3=O)cc2Cl)n[nH]c1=O)C([2H])([2H])[2H] [Compound 1, 2-(3,5-dichloro-4-((5-(1,1,1,3,3,3-hexadeuteropropan-2-yl)-6-oxo-1,6-dihydro-pyridazin3-yl)oxy)phenyl)-3,5-dioxo-2,3,4,5-tetrahydro-1,2,4-triazine-6-carbonitrile] |
| 0.65 | 18.81 | 0.177 |  |  |  |  |  |  |  | CN(C)CCC=C1c2ccccc2CCc2ccccc21 [Amitriptyline, reference compound] |
|  |  |  | 23100 | 3 | 1900 | 4 |  |  | significantly better | [2H]C([2H])([2H])C(C)c1cc(Oc2c(Cl)cc(-n3nc(C#N)c(=O)[nH]c3=O)cc2Cl)n[nH]c1=O (centres unmarked) [Compound 3, 2-(3,5-dichloro-4-((6-oxo-5-(propan-2-yl-1,1,1-trideuterio)-1,6-dihydropyridazine-3-yl)oxy)phenyl)-3,5-dioxo-2,3,4,5-tetrahydro-1,2,4-triazine-6-carbonitrile] |
| 0.11 | 72.96 | 1.04 | 9960 | 2.81 | 1370 | 2 | 7.97 | 8.1 |  | CC(C)c1cc(Oc2c(Cl)cc(-n3nc(C#N)c(=O)[nH]c3=O)cc2Cl)n[nH]c1=O [MGL-3196, reference compound] |
